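Growth conditions: 96-well plates. Treatment: test compound, 48 hours, 5 concentrations. Analysis: linear interpolation between bracketing concentrations; unreached endpoints set to highest concentration. TGI: total growth inhibition.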
What was measured:
Assay in all cases: NCI anticancer screen, dose series, 48 h
[1] = test system: MALME-3M melanoma
[2] = test system: SF-539 CNS
[3] = test system: SR leukemia
[4] = test system: SNB-19 CNS
[5] = test system: HT29 colon
[6] = test system: XF 498 CNS
[7] = test system: UACC-62 melanoma
[8] = test system: HCT-116 colon
[9] = test system: DLD-1 colon

Row | Compound | TGI [1] [µM] | TGI [2] [µM] | TGI [3] [µM] | TGI [4] [µM] | TGI [5] [µM] | TGI [6] [µM] | TGI [7] [µM] | TGI [8] [µM] | TGI [9] [µM]
1 | CCCCOC(=O)NC(=O)c1cn(CCCOC(=O)CCCCCCCCC(=O)OCCCn2cc(C(=O)NC(=O)OCCCC)c(=O)[nH]c2=O)c(=O)[nH]c1=O | > 100 | > 100 | > 100 | > 100 | > 100 | > 100 | > 100 | > 100 | > 100
2 | CC(=O)c1cccc(N2COC(C)(C)c3nc4ccccc4n3C2)c1 | > 100 | > 100 | > 100 | > 100 | > 100 | > 100 | > 100 | > 100 | > 100
3 | CC/C(C)=C1\CCC(CN2CCOCC2)C1=O (configuration not stated) | 33 | 35 | 49.8 | > 100 | 39.9 | 33.4 | 32.7 | 26.8 | 27

From PubChem BioAssay (NCI)
